Test results reported in ChEMBL document CHEMBL5678795 (Eur J Pharmacol, 1999).
Calls of active or inactive are those of the source. The calls are words filed in the database; no cut-off is given here.

Columns and labels:
[1] = molecular target: Translocator protein (Homo sapiens) (UniProt P30536); test: Displacement of [3H] PK 11195 from peripheral-type benzodiazepine (unknown origin) at 10 uM incubated for 15 mins by radiometric based scintillation counter assay relative to control
[2] = molecular target: 5-hydroxytryptamine receptor 7 (Homo sapiens) (UniProt P34969); test: Displacement of [3H]LSD from human recombinant 5-Hydroxytryptamine 7 at 10 uM incubated for 120 mins by radiometric based scintillation counter assay relative to control
5-hydroxytryptamine receptor 7 (Homo sapiens), sequence (P34969 whole entry): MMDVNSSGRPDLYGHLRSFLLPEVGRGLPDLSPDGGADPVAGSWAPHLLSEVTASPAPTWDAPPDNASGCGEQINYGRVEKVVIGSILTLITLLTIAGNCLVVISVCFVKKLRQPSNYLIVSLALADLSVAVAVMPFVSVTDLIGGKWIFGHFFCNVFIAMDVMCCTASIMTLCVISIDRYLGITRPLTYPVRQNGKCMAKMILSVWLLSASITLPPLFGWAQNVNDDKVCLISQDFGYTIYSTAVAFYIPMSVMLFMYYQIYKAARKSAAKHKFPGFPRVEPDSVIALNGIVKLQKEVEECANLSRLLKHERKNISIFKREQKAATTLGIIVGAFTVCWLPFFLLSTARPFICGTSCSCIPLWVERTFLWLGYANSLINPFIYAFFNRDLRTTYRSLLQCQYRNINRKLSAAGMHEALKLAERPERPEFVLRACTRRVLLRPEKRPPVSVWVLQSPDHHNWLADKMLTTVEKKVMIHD

[3] = Half life in Beagle dog at 5 mg/kg, po administered for 12 hrs by HPLC analysis; assay type: ADME, organism-based, Canis lupus familiaris; conditions: in vivo
[4] = molecular target: T1, Endothelin-1 receptor (Homo sapiens) (UniProt P25101); test: Antagonist activity at ETA receptor in human Pericardial smooth muscle cell assessed as inhibition of […] in presence of myo-[3H] inositol by anion exchange chromatography; assay type: functional, cell-based
T1 sequence (whole entry): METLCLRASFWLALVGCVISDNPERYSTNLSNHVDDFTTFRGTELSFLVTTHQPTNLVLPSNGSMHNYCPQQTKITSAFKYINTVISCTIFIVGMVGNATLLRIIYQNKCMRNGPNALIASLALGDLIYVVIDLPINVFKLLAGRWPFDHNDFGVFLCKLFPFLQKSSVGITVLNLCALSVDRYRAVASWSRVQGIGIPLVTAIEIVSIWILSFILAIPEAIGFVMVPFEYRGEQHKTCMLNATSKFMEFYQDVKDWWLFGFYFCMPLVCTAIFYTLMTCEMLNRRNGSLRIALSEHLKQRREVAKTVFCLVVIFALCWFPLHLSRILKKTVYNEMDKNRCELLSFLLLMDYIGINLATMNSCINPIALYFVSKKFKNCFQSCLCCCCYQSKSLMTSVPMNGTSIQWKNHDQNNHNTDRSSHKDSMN

Endothelin-1 receptor [5] = molecular target: T2, Endothelin-1 receptor (Homo sapiens, UniProt P25101); test: Displacement of [125I]endhothelin-1 from human ETA receptor stably expressed in CHO cells Membrane at 25 degC incubated for 3 hrs by radioligand competition binding assay; assay type: cell membranes
T2 sequence (P25101 whole entry): T1 sequence (whole entry)

[6] = molecular target: Adenosine receptor A3 (Homo sapiens) (UniProt P0DMS8); test: Displacement of [125I]AB-MECA from human recombinant adenosine A3 receptor at 10 uM incubated for 120 mins by radiometric based scintillation counter assay relative to control
Adenosine receptor A3 (Homo sapiens), sequence (P0DMS8 whole entry): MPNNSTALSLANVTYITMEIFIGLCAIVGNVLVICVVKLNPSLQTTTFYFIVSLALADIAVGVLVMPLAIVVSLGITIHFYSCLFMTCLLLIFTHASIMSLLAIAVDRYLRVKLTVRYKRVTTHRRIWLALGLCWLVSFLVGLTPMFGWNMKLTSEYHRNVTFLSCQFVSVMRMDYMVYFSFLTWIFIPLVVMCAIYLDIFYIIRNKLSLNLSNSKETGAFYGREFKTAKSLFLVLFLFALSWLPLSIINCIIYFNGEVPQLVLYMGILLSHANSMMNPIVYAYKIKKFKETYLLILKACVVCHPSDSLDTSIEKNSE

[7] = molecular target: Muscarinic acetylcholine receptor M1 (Homo sapiens) (UniProt P11229); test: Displacement of [3H]pirenzepine from human recombinant muscarinic M1 receptor at 10 uM incubated for 60 mins by radiometric based scintillation counter assay relative to control
Muscarinic acetylcholine receptor M1 (Homo sapiens), sequence (P11229 whole entry): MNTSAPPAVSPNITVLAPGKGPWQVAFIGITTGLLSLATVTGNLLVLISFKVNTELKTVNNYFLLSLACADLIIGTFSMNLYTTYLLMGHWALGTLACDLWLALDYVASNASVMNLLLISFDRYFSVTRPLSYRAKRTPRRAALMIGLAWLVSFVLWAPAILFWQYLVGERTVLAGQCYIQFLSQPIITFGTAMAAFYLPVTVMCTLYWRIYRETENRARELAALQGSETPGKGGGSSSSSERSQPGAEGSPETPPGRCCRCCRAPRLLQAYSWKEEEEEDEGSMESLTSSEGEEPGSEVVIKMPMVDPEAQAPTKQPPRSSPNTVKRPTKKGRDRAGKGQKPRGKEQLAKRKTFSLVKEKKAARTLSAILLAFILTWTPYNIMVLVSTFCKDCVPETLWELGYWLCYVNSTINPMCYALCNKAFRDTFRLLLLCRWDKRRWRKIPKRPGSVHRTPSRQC

[8] = molecular target: T3, Endothelin receptor type B (Homo sapiens, UniProt P24530); test: Displacement of [125I]endhothelin-3 from human ETB receptor stably expressed in CHO cells Membrane at 25 degC incubated for 3 hrs by radioligand competition binding assay; assay type: cell membranes
T3 sequence (P24530 whole entry): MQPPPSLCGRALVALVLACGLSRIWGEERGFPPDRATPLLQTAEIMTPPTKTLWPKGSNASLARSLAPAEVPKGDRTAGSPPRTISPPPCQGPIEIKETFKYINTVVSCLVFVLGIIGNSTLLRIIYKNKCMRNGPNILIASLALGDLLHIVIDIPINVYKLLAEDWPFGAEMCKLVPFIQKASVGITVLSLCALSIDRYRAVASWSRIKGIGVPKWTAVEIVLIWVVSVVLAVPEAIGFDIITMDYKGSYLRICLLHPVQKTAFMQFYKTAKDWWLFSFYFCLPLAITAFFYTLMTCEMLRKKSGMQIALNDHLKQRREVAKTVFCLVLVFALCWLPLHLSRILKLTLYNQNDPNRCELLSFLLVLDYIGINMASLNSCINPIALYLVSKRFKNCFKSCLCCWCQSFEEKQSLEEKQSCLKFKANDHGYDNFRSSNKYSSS

[9] = molecular target: D(1B) dopamine receptor (Homo sapiens) (UniProt P21918); test: Displacement of [3H]SCH 23390 from human recombinant dopamine D5 receptor at 10 uM incubated for 60 mins by radiometric based scintillation counter assay relative to control
D(1B) dopamine receptor (Homo sapiens), sequence (P21918 whole entry): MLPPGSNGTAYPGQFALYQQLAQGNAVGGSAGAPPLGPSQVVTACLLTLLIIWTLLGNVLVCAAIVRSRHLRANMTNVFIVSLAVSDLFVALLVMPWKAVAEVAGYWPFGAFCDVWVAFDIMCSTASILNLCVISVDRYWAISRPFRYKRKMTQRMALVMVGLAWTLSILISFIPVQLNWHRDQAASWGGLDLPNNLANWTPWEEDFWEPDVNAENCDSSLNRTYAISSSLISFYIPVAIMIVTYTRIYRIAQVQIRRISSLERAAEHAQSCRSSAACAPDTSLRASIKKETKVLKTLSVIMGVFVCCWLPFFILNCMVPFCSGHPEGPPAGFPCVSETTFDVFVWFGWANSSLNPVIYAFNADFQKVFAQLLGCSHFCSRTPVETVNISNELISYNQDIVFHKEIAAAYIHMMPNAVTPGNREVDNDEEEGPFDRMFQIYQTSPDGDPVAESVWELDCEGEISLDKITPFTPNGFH

[10] = Oral bioavailability in Beagle dog at 5 mg/kg administered for 12 hrs by HPLC analysis; assay type: ADME, organism-based, Canis lupus familiaris; conditions: in vivo
Endothelin-1 receptor [11] = molecular target: T2, Endothelin-1 receptor; test: Antagonist activity at ETA receptor in endothelin-1 stimulated human Pericardial smooth muscle cell assessed as inhibition of […] in presence of myo-[3H] inositol by anion exchange chromatography; assay type: functional, cell-based
[12] = molecular target: Histamine H1 receptor (Homo sapiens) (UniProt P35367); test: Displacement of [3H]pyrilamine from human recombinant central-type histamine H1 receptor at 10 uM incubated for 60 mins by radiometric based scintillation counter assay relative to control
Histamine H1 receptor (Homo sapiens), sequence (P35367 whole entry): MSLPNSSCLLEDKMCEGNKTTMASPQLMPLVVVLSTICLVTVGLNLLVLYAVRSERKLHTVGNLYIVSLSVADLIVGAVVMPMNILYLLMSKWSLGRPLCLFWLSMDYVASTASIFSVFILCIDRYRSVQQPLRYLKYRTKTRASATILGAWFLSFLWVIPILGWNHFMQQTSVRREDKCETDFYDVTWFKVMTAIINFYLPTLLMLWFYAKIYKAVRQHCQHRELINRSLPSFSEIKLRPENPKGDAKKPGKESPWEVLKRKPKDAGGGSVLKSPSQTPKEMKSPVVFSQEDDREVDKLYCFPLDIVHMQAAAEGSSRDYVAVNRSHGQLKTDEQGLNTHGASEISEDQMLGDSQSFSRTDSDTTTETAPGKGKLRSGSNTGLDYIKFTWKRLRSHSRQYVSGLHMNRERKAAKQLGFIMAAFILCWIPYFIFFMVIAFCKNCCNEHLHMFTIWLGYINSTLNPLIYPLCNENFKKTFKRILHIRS

[13] = molecular target: Endothelin receptor type B (Sus scrofa, UniProt P35463); test: Displacement of [125I]endhothelin-3 from ETB receptor in porcine Cerebellum Membrane at 25 degC incubated for 3 hrs by radioligand competition binding assay; assay type: cell membranes
Endothelin receptor type B (Sus scrofa, UniProt P35463), sequence (P35463 whole entry): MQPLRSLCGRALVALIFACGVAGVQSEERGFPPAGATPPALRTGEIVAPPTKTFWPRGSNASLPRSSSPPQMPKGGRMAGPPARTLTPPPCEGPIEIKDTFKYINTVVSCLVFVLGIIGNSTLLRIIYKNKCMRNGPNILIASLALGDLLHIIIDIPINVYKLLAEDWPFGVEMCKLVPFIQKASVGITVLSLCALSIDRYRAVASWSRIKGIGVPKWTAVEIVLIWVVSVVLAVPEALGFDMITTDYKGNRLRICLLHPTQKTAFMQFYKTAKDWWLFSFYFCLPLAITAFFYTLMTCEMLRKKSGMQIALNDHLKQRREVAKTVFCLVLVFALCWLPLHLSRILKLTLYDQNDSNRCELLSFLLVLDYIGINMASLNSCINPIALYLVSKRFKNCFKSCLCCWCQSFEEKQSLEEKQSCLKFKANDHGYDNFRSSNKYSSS

[14] = molecular target: Gastrin/cholecystokinin type B receptor (Homo sapiens) (UniProt P32239); test: Displacement of [125I]CCK-8s from human recombinant cholecystokinin B receptor at 10 uM incubated for 60 mins by radiometric based scintillation counter assay relative to control
Gastrin/cholecystokinin type B receptor (Homo sapiens), sequence (P32239 whole entry): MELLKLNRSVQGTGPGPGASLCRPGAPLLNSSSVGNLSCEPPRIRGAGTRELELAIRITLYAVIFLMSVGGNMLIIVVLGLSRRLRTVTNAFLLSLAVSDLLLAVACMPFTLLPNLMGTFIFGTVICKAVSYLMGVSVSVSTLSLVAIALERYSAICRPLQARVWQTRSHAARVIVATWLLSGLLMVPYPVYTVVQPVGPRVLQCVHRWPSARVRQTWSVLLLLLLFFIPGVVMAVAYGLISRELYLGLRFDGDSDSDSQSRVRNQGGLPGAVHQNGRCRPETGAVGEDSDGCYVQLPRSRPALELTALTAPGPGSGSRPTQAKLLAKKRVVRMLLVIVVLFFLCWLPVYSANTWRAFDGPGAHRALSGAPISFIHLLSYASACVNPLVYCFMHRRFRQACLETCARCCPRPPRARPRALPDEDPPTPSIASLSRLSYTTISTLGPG

[15] = molecular target: 5-hydroxytryptamine receptor 6 (Homo sapiens) (UniProt P50406); test: Displacement of [3H]LSD from human recombinant 5-Hydroxytryptamine 6 at 10 uM incubated for 120 mins by radiometric based scintillation counter assay relative to control
Homo sapiens = species on record: Homo sapiens; test: Displacement of [35S]TBPS to GABA channel Chloride ionophore binding site (unknown origin) at 10 uM by radioligand binding assay relative to control; conditions: filed as antagonist
[16] = molecular target: 5-hydroxytryptamine receptor 2C (Homo sapiens) (UniProt P28335); test: Displacement of [3H]mesulergine from human recombinant 5-Hydroxytryptamine 2C at 10 uM incubated for 120 mins by radiometric based scintillation counter assay relative to control
5-hydroxytryptamine receptor 2C (Homo sapiens), sequence (P28335 whole entry): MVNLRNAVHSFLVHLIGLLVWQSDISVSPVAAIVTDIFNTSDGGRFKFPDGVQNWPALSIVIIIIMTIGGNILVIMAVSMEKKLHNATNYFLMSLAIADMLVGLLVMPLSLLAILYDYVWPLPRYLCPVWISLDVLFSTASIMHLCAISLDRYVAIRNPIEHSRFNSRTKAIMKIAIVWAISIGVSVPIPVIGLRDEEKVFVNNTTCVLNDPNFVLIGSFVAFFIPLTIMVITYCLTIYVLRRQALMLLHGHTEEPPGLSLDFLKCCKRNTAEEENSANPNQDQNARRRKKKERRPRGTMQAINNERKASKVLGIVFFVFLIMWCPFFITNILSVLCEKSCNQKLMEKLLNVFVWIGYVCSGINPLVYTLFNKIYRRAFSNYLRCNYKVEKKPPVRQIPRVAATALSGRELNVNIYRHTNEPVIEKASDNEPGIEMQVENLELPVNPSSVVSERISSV

[17] = molecular target: D(2) dopamine receptor (Homo sapiens) (UniProt P14416); test: Displacement of [3H]methyl-spiperone from human recombinant dopamine D2 receptor at 10 uM incubated for 60 mins by radiometric based scintillation counter assay relative to control
D(2) dopamine receptor (Homo sapiens), sequence (P14416 whole entry): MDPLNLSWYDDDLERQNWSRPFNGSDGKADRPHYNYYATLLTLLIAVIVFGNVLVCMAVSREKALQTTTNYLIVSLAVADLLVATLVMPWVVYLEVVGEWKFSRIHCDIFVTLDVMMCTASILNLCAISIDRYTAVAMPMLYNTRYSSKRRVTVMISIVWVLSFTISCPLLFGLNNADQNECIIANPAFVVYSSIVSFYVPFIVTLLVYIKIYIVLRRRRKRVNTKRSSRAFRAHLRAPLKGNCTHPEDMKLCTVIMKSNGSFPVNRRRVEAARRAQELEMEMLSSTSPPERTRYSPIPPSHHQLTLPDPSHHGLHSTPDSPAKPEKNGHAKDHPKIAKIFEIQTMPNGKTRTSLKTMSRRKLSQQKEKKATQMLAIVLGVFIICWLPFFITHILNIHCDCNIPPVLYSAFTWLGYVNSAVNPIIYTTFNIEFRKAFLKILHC

[18] = molecular target: 5-hydroxytryptamine receptor 5A (Homo sapiens) (UniProt P47898); test: Displacement of [3H]LSD from human recombinant 5-Hydroxytryptamine 5A at 10 uM incubated for 120 mins by radiometric based scintillation counter assay relative to control
5-hydroxytryptamine receptor 5A (Homo sapiens), sequence (P47898 whole entry): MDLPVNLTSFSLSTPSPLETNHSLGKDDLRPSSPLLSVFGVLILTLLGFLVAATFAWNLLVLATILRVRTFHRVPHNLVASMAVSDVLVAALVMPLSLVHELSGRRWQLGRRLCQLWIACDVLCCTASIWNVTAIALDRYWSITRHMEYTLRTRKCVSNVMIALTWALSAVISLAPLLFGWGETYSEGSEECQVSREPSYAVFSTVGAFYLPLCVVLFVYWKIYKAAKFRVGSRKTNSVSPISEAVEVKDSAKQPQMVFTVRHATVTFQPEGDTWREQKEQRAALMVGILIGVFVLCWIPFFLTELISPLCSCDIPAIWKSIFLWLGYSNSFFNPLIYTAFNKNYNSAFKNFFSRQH

[19] = molecular target: Prostacyclin receptor (Homo sapiens) (UniProt P43119); test: Displacement of [3H]iloprost from human recombinant Prostaglandin I2 receptor at 10 uM incubated for 60 mins by radiometric based scintillation counter assay relative to control
Prostacyclin receptor (Homo sapiens), sequence (P43119 whole entry): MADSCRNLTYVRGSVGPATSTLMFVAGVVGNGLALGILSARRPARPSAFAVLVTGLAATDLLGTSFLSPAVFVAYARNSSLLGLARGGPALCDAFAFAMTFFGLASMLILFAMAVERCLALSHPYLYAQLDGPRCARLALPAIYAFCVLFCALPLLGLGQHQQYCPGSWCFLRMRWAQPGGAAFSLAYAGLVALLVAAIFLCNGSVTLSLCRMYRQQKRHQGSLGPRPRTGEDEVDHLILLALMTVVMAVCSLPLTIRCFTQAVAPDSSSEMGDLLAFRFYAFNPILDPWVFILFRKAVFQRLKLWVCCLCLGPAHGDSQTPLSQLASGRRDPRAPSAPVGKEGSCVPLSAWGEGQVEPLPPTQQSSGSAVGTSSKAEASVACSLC

Translocator protein (Homo sapiens), sequence (P30536 whole entry): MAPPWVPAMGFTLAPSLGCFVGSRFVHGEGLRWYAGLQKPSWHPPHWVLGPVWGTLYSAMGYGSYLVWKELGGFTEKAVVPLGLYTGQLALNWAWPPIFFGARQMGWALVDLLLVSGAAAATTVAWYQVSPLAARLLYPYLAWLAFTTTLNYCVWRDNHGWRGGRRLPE

CCCCN(CCCC)C(=O)CN1[C@H](c2cc(OC)c3c(c2)OCO3)C[C@@H](C(=O)O)[C@@H]1CC(C)(C)CCC
inhibition [1]: < 10% | inhibition [2]: < 10% | half-life [3]: 3.3 h | Activity [4]: inactive | IC50 (Endothelin-1 receptor [5]): 0.00049 µM | inhibition [6]: 32% | inhibition [7]: < 10% | IC50 [8]: 15.4 µM | inhibition [9]: < 10% | bioavailability [10]: 19.9% | IC50 (Endothelin-1 receptor [11]): 0.00303 µM | inhibition [12]: < 10% | IC50 [13]: 16.7 µM | inhibition [14]: < 10% | inhibition [15]: < 10% | inhibition (Homo sapiens): 61% | inhibition [16]: < 10% | inhibition [17]: < 10% | inhibition [18]: < 10% | inhibition [19]: 15%
